This is an account of results in patent US10844057B2, “Process for preparing JAK inhibitors and intermediates thereof” (priority 2018, dated 2020).

One assay has as its target JAK1 (Homo sapiens (Human), UniProt P23458). The assay is described as follows: Biochemical JAK kinase assay (LanthaScreen), JAK1. To be noted: converted from pIC50 using Cheng-Prusoff; ATP 25 μM. The protocol:
Assay 1: Biochemical JAK Kinase Assays
A panel of four LanthaScreen JAK biochemical assays (JAK1, 2, 3 and Tyk2) were carried in a common kinase reaction buffer (50 mM HEPES, pH 7.5, 0.01% Brij-35, 10 mM MgCl2, and 1 mM EGTA). Recombinant GST-tagged JAK enzymes and a GFP-tagged STAT1 peptide substrate were obtained from Life Technologies.
Serially diluted compounds were pre-incubated with each of the four JAK enzymes and the substrate in white 384-well microplates (Corning) at ambient temperature for 1 h. ATP was subsequently added to initiate the kinase reactions in 10 μL total volume, with 1% DMSO. […] Kinase reactions were allowed to proceed for 1 hour at ambient temperature before a 10 μL preparation of EDTA (10 mM final concentration) and Tb-anti-pSTAT1 (pTyr701) antibody (Life Technologies, 2 nM final concentration) in TR-FRET dilution buffer (Life Technologies) was added. The plates were allowed to incubate at ambient temperature for 1 h before being read on the EnVision reader (Perkin Elmer). Emission ratio signals (520 nm/495 nm) were recorded and utilized to calculate the percent inhibition values based on DMSO and background controls.
For dose-response analysis, percent inhibition data were plotted vs. compound concentrations, and IC50 values were determined from a 4-parameter robust fit model with the Prism software (GraphPad Software). Results were expressed as pIC50 (negative logarithm of IC50) and subsequently converted to pKi (negative logarithm of dissociation constant, Ki) using the Cheng-Prusoff equation.
A general note: TR-FRET usually uses a lanthanide donor and a delayed reading to cut background.

The test system of assay [1] is TSLP-evoked TARC release in human peripheral blood mononuclear cells. The assay is described as follows: Inhibition of TSLP-evoked TARC release in human peripheral blood mononuclear cells. The assay is classed as cell-based. The following applies: human PBMC, 3 to 5 donors, TSLP 10 ng/mL, 48 hours, ELISA; read-out: pIC50 ± st. dev., inhibition of TSLP-evoked TARC release (converted). From the text:
Assay 4: Inhibition of TSLP-Evoked TARC Release in Human Peripheral Blood Mononuclear Cells
Thymic stromal lymphopoietin (TSLP) and thymus and activation-regulated chemokine (TARC) are overexpressed in asthmatic airways, and correlate with disease severity. In the lungs, TSLP may be released by bronchial epithelial cells in response to allergens and viral infections. TSLP signals through an IL-7Rα/TSLPR heterodimer found in a broad range of tissues and cell types, including epithelial cells, endothelial cells, neutrophils, macrophages, and mast cells. The binding of TSLP to its receptor induces a conformational change that activates JAK1 and JAK2 to phosphorylate various transcription factors, including STAT3 and STAT5. In immune cells, this triggers a cascade of intracellular events that result in cell proliferation, anti-apoptosis, dendritic cell migration, and production of Th2 cytokines and chemokines. In peripheral blood mononuclear cells (PBMC), TSLP has a proinflammatory effect by activating myeloid dendritic cells to attract and stimulate T cells, a process mediated by the chemoattractant TARC.
The potencies of the test compounds were measured for inhibition of TARC release.
PBMC aliquots (previously isolated from whole blood and frozen in aliquots at −80° C.) from 3 to 5 donors were thawed at 37° C. and added dropwise to 40 mL pre-warmed, sterile-filtered, complete RPMI media in 50 mL Falcon tubes. Cells were pelleted and resuspended in complete media at 2.24×10^6 cells/mL. […] Cells were allowed to rest for 1 hour at 37° C. with 5% CO2.
Compounds were received as 10 mM stock solutions in DMSO. 3.7-fold serial dilutions were performed to generate 9 concentrations of test compound in DMSO at 300× the final assay test concentration. […] 95 μL of 0.2% DMSO in complete media was added to the untreated control wells. Cells were pre-treated with compound for 1 hour at 37° C. with 5% CO2 prior to stimulation.
Immediately prior to use, an aliquot was thawed and prepared at 20× the final assay concentration in complete media. 10 μL of 20×TSLP was added to each well of PBMC, for a final assay concentration of 10 ng/mL. 10 μL of complete media was added to the unstimulated control wells. Cells were stimulated in the presence of compound for 48 hours at 37° C. with 5% CO2.
Following stimulation, the cell culture supernatants were harvested and TARC levels were detected by enzyme-linked immunosorbent assay (ELISA), using Human CCL17/TARC Quantikine ELISA Kit (R&D Systems # DDN00) according to the manufacturer's instructions.
For dose response analysis, the log [test compound (M)] was plotted versus the percent response values for each donor, and IC50 values were determined using a nonlinear regression analysis with GraphPad Prism Software using the 4-parameter sigmoidal dose-response algorithm with variable slope. Data are expressed as mean pIC50 (negative decadic logarithm IC50) values calculated from pIC50 values of individual donors and rounded to one decimal place.
In general terms: ELISA stands for enzyme-linked immunosorbent assay.

Structures are written as SMILES.

JAK1, sequence (P23458 whole entry): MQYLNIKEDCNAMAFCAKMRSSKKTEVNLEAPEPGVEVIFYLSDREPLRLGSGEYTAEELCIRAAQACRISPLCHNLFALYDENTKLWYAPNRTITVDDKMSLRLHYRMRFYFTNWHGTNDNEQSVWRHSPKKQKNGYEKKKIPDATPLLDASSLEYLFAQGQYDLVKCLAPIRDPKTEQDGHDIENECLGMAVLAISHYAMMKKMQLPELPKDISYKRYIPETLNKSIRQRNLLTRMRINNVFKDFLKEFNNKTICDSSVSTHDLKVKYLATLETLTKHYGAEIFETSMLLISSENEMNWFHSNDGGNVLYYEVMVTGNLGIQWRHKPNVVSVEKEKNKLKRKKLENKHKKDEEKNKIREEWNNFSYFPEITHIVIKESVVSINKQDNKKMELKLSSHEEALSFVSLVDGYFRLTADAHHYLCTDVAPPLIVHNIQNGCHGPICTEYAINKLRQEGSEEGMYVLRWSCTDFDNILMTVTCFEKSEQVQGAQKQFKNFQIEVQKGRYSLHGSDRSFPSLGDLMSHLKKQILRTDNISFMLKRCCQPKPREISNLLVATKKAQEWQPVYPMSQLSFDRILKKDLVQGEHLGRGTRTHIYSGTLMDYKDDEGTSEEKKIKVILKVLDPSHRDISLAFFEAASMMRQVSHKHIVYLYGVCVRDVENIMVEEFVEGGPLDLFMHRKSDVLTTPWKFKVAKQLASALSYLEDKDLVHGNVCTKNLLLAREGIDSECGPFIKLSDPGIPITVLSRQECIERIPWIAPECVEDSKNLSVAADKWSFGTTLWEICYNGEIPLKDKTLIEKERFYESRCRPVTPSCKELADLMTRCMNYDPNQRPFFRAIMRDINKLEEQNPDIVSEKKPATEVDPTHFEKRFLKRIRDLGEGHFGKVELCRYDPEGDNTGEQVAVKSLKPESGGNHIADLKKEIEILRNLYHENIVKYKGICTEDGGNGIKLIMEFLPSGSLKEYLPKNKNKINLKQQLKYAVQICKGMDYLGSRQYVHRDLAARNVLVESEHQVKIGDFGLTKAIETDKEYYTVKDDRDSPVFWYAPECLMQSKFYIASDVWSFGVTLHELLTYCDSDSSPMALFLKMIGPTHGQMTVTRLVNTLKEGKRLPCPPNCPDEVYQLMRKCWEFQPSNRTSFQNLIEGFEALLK

Turning to `CCc1cc(O)c(F)cc1-c1ccc2c(-c3nc4c([nH]3)CN(C(C)C)[C@H](C(=O)N3CC(N(C)C)C3)C4)n[nH]c2c1` [Example 8, (S)-(3-(dimethylamino)azetidin-1-yl)(2-(6-(2-ethyl-5-fluoro-4-hydroxyphenyl)-1H-indazol-3-yl)-5-isopropyl-4,5,6,7-tetrahydro-3H-imidazo[4,5-c]pyridin-6-yl)methanone], at JAK1, the “JAK1 pKi” value is 10.4. In assay [1], the IC50 was 0.1 µM.
